Values quoted from earlier work, collected in patent US20200360403A1, “OPTHALMIC COMPOSITIONS FOR INHIBITING CLOUDING OF THE OCULAR LENS” (priority 2019, published 2020).

Columns and labels:
[1] = tested on: cffl-crystallins; conditions: compared to ATP
[2] = tested on: aggregated lens protein; conditions: all studies by Daszynski et al.

| SMILES | binding scores for good predictive binding to the crystallins [1] | anti-cataractogenic activity or binding of aggregated lens protein to dissolve cataracts [2] |
| --- | --- | --- |
| C[C@H](CCCC(C)(C)O)[C@H]1CC[C@H]2[C@@H]3CC=C4C[C@@H](O)CC[C@]4(C)[C@H]3CC[C@]12C [25-hydroxycholesterol] | failed to reach the acceptable threshold binding scores | failed to provide evidence |
| CC(C)=CCC[C@@H](C)[C@H]1CC[C@@]2(C)C3=C(CC[C@]12C)[C@@]1(C)CC[C@H](O)C(C)(C)[C@@H]1CC3 [lanosterol] | failed to reach the acceptable threshold binding scores | failed to provide evidence |
